Assays:
Type in all cases: cell-based, human
[1] = test system: HCT116 cells transduced with the constructs; experiment: Response to Sildenafil, GFP expression by flow cytometry in HCT116; conditions: for MFI / Stabilization ratio with Sildenafil: 48 hours, HCT116; for Basal expression: Table 26, MFI with DMSO / parental HCT116, Sildenafil experiment
Protocol: Similar experiments were performed in HCT116 cells using sildenafil. The above-mentioned DDs were cloned as AcGFP fusion into pELNS vector carrying mCherry marker and packaged in lentiviral vectors. HCT116 cells were transduced with the constructs and stable integrants were selected by cell sorting using mCherry marker. Cells were treated with sildenafil at the following μM concentrations: 0.01, 0.02, 0.05, 0.14, 0.41, 1.23, 3.7, 11.11, 33.33, and 100 for a duration of 48 hours. The fluorescence was analyzed by flow cytometry and the mean fluorescence intensity was calculated for all samples. […] The stabilization ratios are shown in Table 24 and Table 25 and the basal expression is show in Table 26.

[2] = test system: HCT 116 cells transduced with the PDE5A DD derived GFP constructs; experiment: Response to Tadalafil, GFP expression by FACS in HCT116
Protocol: (§1) PDE5AN (#3) was cloned as AcGFP fusion into pELNS vector carrying mCherry marker and packaged in lentiviral vectors. HCT116 cells were transduced with the construct and stable integrants were selected by cell sorting using mCherry marker. Cells were treated with vehicle (dimethyl sulfoxide, DMSO) or varying doses of Tadalafil (TDF) for 48 hrs with doses ranging from 0.01 μM to 100 μM. Following the treatment, cells were analyzed for GFP expression using FACS. Basal expression was calculated as the ratio of GFP signal in the absence of ligand for a given cell line to auto fluorescence of parental HCT-116 cells. Stabilization ratio was calculated as the ratio of the GFP signal observed in the presence of stabilizing ligand to the signal from the same cell line in the absence of ligand.
HCT 116 cells transduced with the PDE5A DD derived GFP constructs were also tested with increasing doses of Tadalafil. The HCT116 cells were incubated for 48 hours with Tadalafil starting at dose 0.01 μM to 100 μM. The GFP intensity of the Tadalafil treated samples was compared to the parental untransduced HCT116 and DMSO treated cells for each construct. The mean fluorescence intensity was calculated for each sample and used to calculate the stabilization ratios as well as the basal expression for each construct. The stabilization ratios are shown in Table 19 and Table 20 and the basal expression is show in Table 21.

[3] = test system: HCT 116 cells transduced with the PDE5A DD derived GFP constructs; experiment: Response to Vardenafil, GFP expression by FACS in HCT116
Protocol: as §1, with “Mutations were created in PDE5A (535-860) catalytic domain using site directed mutagenesis and the mutants were” for “PDE5AN (#3) was”, “constructs” for “construct”, “10 μM Vardenafil (VDF)” for “varying doses of Tadalafil (TDF)”, “hours.” for “hrs with doses ranging from 0.01 μM to 100 μM.”
HCT 116 cells transduced with the PDE5A DD derived GFP constructs were also tested with increasing doses of Vardenafil. The HCT116 cells were incubated for 48 hours with Vardenafil starting at a dose of 0.002 μM to 30 μM. The GFP intensity of the Vardenafil treated samples was compared to the parental untransduced HCT116 and DMSO treated cells for each construct. The mean fluorescence intensity was calculated for each sample and used to calculate the stabilization ratios as well as the basal expression for each construct. The GFP expression was measured using flow cytometry and the mean fluorescence intensity (MFI) was calculated for each sample. The stabilization ratios are shown in Table 13 and Table 14 and the basal expression is show in Table 15.

[4] = DMSO (no Tadalafil), 48 hours, HCT116
[5] = Tadalafil 0.01 μM vs DMSO, 48 hours, HCT116
[6] = Tadalafil 0.01 μM, 48 hours, HCT116
[7] = Tadalafil 0.02 μM vs DMSO, 48 hours, HCT116
[8] = Tadalafil 0.02 μM, 48 hours, HCT116
[9] = Tadalafil 0.05 μM vs DMSO, 48 hours, HCT116
[10] = Tadalafil 0.05 μM, 48 hours, HCT116
[11] = Tadalafil 0.14 μM, 48 hours, HCT116
[12] = Tadalafil 0.41 μM vs DMSO, 48 hours, HCT116
[13] = Tadalafil 0.41 μM, 48 hours, HCT116
[14] = Tadalafil 1.23 μM vs DMSO, 48 hours, HCT116
[15] = Tadalafil 1.23 μM, 48 hours, HCT116
[16] = Tadalafil 3.7 μM vs DMSO, 48 hours, HCT116
[17] = Tadalafil 3.7 μM, 48 hours, HCT116
[18] = Tadalafil 11.11 μM vs DMSO, 48 hours, HCT116
[19] = Tadalafil 11.11 μM, 48 hours, HCT116
[20] = Tadalafil 33.33 μM vs DMSO, 48 hours, HCT116
[21] = Tadalafil 33.33 μM, 48 hours, HCT116
[22] = Tadalafil 100 μM vs DMSO, 48 hours, HCT116
[23] = Tadalafil 100 μM, 48 hours, HCT116
[24] = DMSO (no Vardenafil), 48 hours, HCT116
[25] = Vardenafil 0.002 μM vs DMSO, 48 hours, HCT116
[26] = Vardenafil 0.002 μM, 48 hours, HCT116
[27] = Vardenafil 0.005 μM, 48 hours, HCT116
[28] = Vardenafil 0.014 μM vs DMSO, 48 hours, HCT116
[29] = Vardenafil 0.014 μM, 48 hours, HCT116
[30] = Vardenafil 0.041 μM vs DMSO, 48 hours, HCT116
[31] = Vardenafil 0.041 μM, 48 hours, HCT116
[32] = Vardenafil 0.123 μM vs DMSO, 48 hours, HCT116
[33] = Vardenafil 0.123 μM, 48 hours, HCT116
[34] = Vardenafil 0.370 μM vs DMSO, 48 hours, HCT116
[35] = Vardenafil 0.370 μM, 48 hours, HCT116
[36] = Vardenafil 1.111 μM vs DMSO, 48 hours, HCT116
[37] = Vardenafil 1.111 μM, 48 hours, HCT116
[38] = Vardenafil 3.333 μM vs DMSO, 48 hours, HCT116
[39] = Vardenafil 3.333 μM, 48 hours, HCT116
[40] = Vardenafil 10 μM vs DMSO, 48 hours, HCT116
[41] = Vardenafil 10 μM, 48 hours, HCT116
[42] = Vardenafil 30 μM, 48 hours, HCT116

PDE5AC (#13): AcGFP fused to C-terminal DD 535-860 of PDE5A (Q589R, Y676D, L738H), SEQ ID NO. 24
MFI ([1]; DMSO (no Sildenafil)): 15122 | Stabilization ratio with Sildenafil ([1]; Sildenafil 0.01 μM vs DMSO): 1.0 | MFI ([1]; Sildenafil 0.01 μM): 14787 | Stabilization ratio with Sildenafil ([1]; Sildenafil 0.02 μM vs DMSO): 1.1 | MFI ([1]; Sildenafil 0.02 μM): 17318 | MFI ([1]; Sildenafil 0.05 μM): 26905 | Stabilization ratio with Sildenafil ([1]; Sildenafil 0.14 μM vs DMSO): 3.2 | MFI ([1]; Sildenafil 0.14 μM): 48611 | Stabilization ratio with Sildenafil ([1]; Sildenafil 0.41 μM vs DMSO): 4.6 | MFI ([1]; Sildenafil 0.41 μM): 69042 | Stabilization ratio with Sildenafil ([1]; Sildenafil 1.23 μM vs DMSO): 5.6 | MFI ([1]; Sildenafil 1.23 μM): 84772 | Stabilization ratio with Sildenafil ([1]; Sildenafil 3.70 μM vs DMSO): 5.5 | MFI ([1]; Sildenafil 3.70 μM): 82519 | Stabilization ratio with Sildenafil ([1]; Sildenafil 11.11 μM vs DMSO): 6.1 | MFI ([1]; Sildenafil 11.11 μM): 92732 | Stabilization ratio with Sildenafil ([1]; Sildenafil 33.33 μM vs DMSO): 6.2 | MFI ([1]; Sildenafil 33.33 μM): 93336 | Stabilization ratio with Sildenafil ([1]; Sildenafil 100.00 μM vs DMSO): 5.0 | MFI ([1]; Sildenafil 100.00 μM): 76090 | Basal expression [1]: 11.7 | MFI [2, 4]: 14416 | Basal expression ([2]; Table 21, MFI with DMSO / parental HCT116, Tadalafil experiment): 11.26 | Stabilization ratio with Tadalafil [2, 5]: 1.0 | MFI [2, 6]: 14388 | Stabilization ratio with Tadalafil [2, 7]: 1.0 | MFI [2, 8]: 14908 | Stabilization ratio with Tadalafil [2, 9]: 1.1 | MFI [2, 10]: 16488 | MFI [2, 11]: 21292 | Stabilization ratio with Tadalafil [2, 12]: 2.3 | MFI [2, 13]: 33396 | Stabilization ratio with Tadalafil [2, 14]: 4.1 | MFI [2, 15]: 58867 | Stabilization ratio with Tadalafil [2, 16]: 5.7 | MFI [2, 17]: 81755 | Stabilization ratio with Tadalafil [2, 18]: 6.4 | MFI [2, 19]: 92484 | Stabilization ratio with Tadalafil [2, 20]: 6.7 | MFI [2, 21]: 96959 | Stabilization ratio with Tadalafil [2, 22]: 7.3 | MFI [2, 23]: 105048 | MFI [3, 24]: 14659 | Basal (DMSO/Parental) ([3]; Table 10, GFP signal without ligand / auto fluorescence of parental HCT-116): 11.3 | Basal ([3]; Table 15, MFI with DMSO / parental HCT116, Vardenafil experiment): 7.50 | Stabilization ratio with Vardenafil [3, 25]: 1.3 | MFI [3, 26]: 18393 | MFI [3, 27]: 27661 | Stabilization ratio with Vardenafil [3, 28]: 4.1 | MFI [3, 29]: 59673 | Stabilization ratio with Vardenafil [3, 30]: 5.3 | MFI [3, 31]: 78117 | Stabilization ratio with Vardenafil [3, 32]: 6.0 | MFI [3, 33]: 88571 | Stabilization ratio with Vardenafil [3, 34]: 6.8 | MFI [3, 35]: 99160 | Stabilization ratio with Vardenafil [3, 36]: 6.8 | MFI [3, 37]: 99377 | Stabilization ratio with Vardenafil [3, 38]: 7.2 | MFI [3, 39]: 105500 | Stabilization ratio with Vardenafil [3, 40]: 6.7 | MFI [3, 41]: 97493 | Stabilization ratio with Vardenafil ([3]; Vardenafil 30 μM vs DMSO, 48 hours, HCT116): 7.2 | MFI [3, 42]: 105335

PDE5AN (#3): N-terminal DD 535-860 of PDE5A (Q589R, K633E, T712S, K852E, K795E), SEQ ID NO. 66, fused to AcGFP
MFI ([1]; DMSO (no Sildenafil)): 9835 | Stabilization ratio with Sildenafil ([1]; Sildenafil 0.01 μM vs DMSO): 1.0 | MFI ([1]; Sildenafil 0.01 μM): 9888 | Stabilization ratio with Sildenafil ([1]; Sildenafil 0.02 μM vs DMSO): 1.0 | MFI ([1]; Sildenafil 0.02 μM): 10157 | Stabilization ratio with Sildenafil ([1]; Sildenafil 0.05 μM vs DMSO): 1.0 | MFI ([1]; Sildenafil 0.05 μM): 9952 | Stabilization ratio with Sildenafil ([1]; Sildenafil 0.14 μM vs DMSO): 1.1 | MFI ([1]; Sildenafil 0.14 μM): 10475 | Stabilization ratio with Sildenafil ([1]; Sildenafil 0.41 μM vs DMSO): 1.3 | MFI ([1]; Sildenafil 0.41 μM): 12302 | Stabilization ratio with Sildenafil ([1]; Sildenafil 1.23 μM vs DMSO): 1.7 | MFI ([1]; Sildenafil 1.23 μM): 16826 | Stabilization ratio with Sildenafil ([1]; Sildenafil 3.70 μM vs DMSO): 2.8 | MFI ([1]; Sildenafil 3.70 μM): 27542 | Stabilization ratio with Sildenafil ([1]; Sildenafil 11.11 μM vs DMSO): 5.4 | MFI ([1]; Sildenafil 11.11 μM): 52641 | Stabilization ratio with Sildenafil ([1]; Sildenafil 33.33 μM vs DMSO): 8.7 | MFI ([1]; Sildenafil 33.33 μM): 85509 | MFI ([1]; Sildenafil 100.00 μM): 103938 | Basal expression [1]: 7.6 | MFI [2, 4]: 6944 | expression of GFP (MFI) with increasing doses of Tadalafil ([2]; Tadalafil 0.01 μM to 100 μM, 48 hours, HCT116): Tadalafil dose dependent increase in the MFI | Stabilization ratio with Tadalafil [2, 5]: 1.0 | MFI [2, 6]: 6781 | Stabilization ratio with Tadalafil [2, 7]: 1.0 | MFI [2, 8]: 6685 | Stabilization ratio with Tadalafil [2, 9]: 1.0 | MFI [2, 10]: 7013 | Stabilization ratio with Tadalafil ([2]; Tadalafil 0.14 μM vs DMSO, 48 hours, HCT116): 1.0 | MFI [2, 11]: 6988 | Stabilization ratio with Tadalafil [2, 12]: 1.1 | MFI [2, 13]: 7648 | Stabilization ratio with Tadalafil [2, 14]: 1.3 | MFI [2, 15]: 8973 | Stabilization ratio with Tadalafil [2, 16]: 2.0 | MFI [2, 17]: 14097 | Stabilization ratio with Tadalafil [2, 18]: 3.8 | MFI [2, 19]: 26560 | Stabilization ratio with Tadalafil [2, 20]: 7.2 | MFI [2, 21]: 49889 | Stabilization ratio with Tadalafil [2, 22]: 9.9 | MFI [2, 23]: 68532 | MFI [3, 24]: 8934 | Stabilization ratio ([3]; Table 10, 10 μM Vardenafil vs DMSO, 48 hours, HCT116): stabilization ratios similar to those observed for sildenafil | Stabilization ratio with Vardenafil [3, 25]: 1.0 | MFI [3, 26]: 8767 | MFI [3, 27]: 9620 | Stabilization ratio with Vardenafil [3, 28]: 1.2 | MFI [3, 29]: 10487 | Stabilization ratio with Vardenafil [3, 30]: 1.6 | MFI [3, 31]: 14086 | Stabilization ratio with Vardenafil [3, 32]: 2.3 | MFI [3, 33]: 20568 | Stabilization ratio with Vardenafil [3, 34]: 4.1 | MFI [3, 35]: 36786 | Stabilization ratio with Vardenafil [3, 36]: 7.4 | MFI [3, 37]: 66543 | Stabilization ratio with Vardenafil [3, 38]: 11.1 | MFI [3, 39]: 98986 | Stabilization ratio with Vardenafil [3, 40]: 13.4 | MFI [3, 41]: 119591 | MFI [3, 42]: 131667

Reference: patent publication US11891634B2, “PDE5A destabilizing domains” (The Board of Trustees of the Leland Stanford Junior …, priority 2017, dated 2024)
